{"source": "patent US12157730B2", "about": "“Heteroaryl derivative, method for producing same, and pharmaceutical composition comprising same as effective component” (VORONOI INC., priority 2019, dated 2024)", "data": [{"biological_target": "T1, Ba/F3 cell EGFR Exon20 ins NPH (Homo sapiens, UniProt P00533, INS773NPH)", "T1 construct": "expressed in transfected cells; host or cells: Ba/F3", "assay": "Ba/F3 cell proliferation suppression, EGFR Exon20 ins NPH", "assay_type": "cell-based", "details": "GI50 class; Ba/F3 cell line with NPH inserted at Exon20 of EGFR; 72 hours", "in_short": "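After 72 h compound exposure (twelve 3-fold steps, 0.3 nM–50 um final), live cells were measured by CellTiter-Glo luminescence and growth expressed as % of control to derive GI50. Cells were seeded at 3000–5000 per well a day earlier; Ba/F3 medium contained IL-3; three repeats.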", "values": [{"smiles": "C=CC(=O)Nc1cc(Nc2cc(N3OCC[C@@H]3c3cc(F)cc(F)c3)ncn2)c(OC)cc1N1CCN(C)[C@@H](C)C1", "note": "[compound 916, N-(5-((6-((R)-3-(3,5-difluorophenyl)isoxazolidine-2-yl)pyrimidine-4-yl)amino)-2-((S)-3,4-dimethylpiperazine-1-yl)-4-methoxyphenyl) acrylamide]", "Ba/F3 (NPH) Activity": "A (GI50 < 50 nM)"}, {"smiles": "C=CC(=O)Nc1cc(Nc2cc(N3OCC[C@@H]3c3cccc(C#N)c3)ncn2)c(OC)cc1N1CCC(N2CCN(C3CC3)C[C@H]2C)CC1", "note": "[Example 131, N-(5-((6-((R)-3-(3-cyanophenyl)isoxazolidine-2-yl)pyrimidine-4-yl)amino)-2-(4-((R)-4-cyclopropyl-2-methylpiperazine-1-yl)piperidine-1-yl)-4-methoxyphenyl) acrylamide]", "Ba/F3 (NPH) Activity": "A (GI50 < 50 nM)"}, {"smiles": "C=CC(=O)Nc1cc(Nc2cc(N3OCC[C@@H]3c3cc(F)cc(F)c3)ncn2)c(OC)cc1N1CCC(N2C[C@H](C)O[C@@H](C)C2)CC1", "note": "[compound 752, N-(5-((6-((R)-3-(3,5-difluorophenyl)isoxazolidine-2-yl)pyrimidine-4-yl)amino)-2-(4-((2S,6S)-2,6-dimethylmorpholino)piperidine-1-yl)-4-methoxyphenyl) acrylamide]", "Ba/F3 (NPH) Activity": "A (GI50 < 50 nM)"}, {"smiles": "C=CC(=O)Nc1cc(Nc2cc(N3OCC[C@@H]3c3c(F)cccc3F)ncn2)c(OC)cc1N1CCC(N2CCN(C3CC3)[C@H](C)C2)CC1", "note": "[Example 137, N-(2-(4-((R)-4-cyclopropyl-3-methylpiperazine-1-yl)piperidine-1-yl)-5-((6-((R)-3-(2,6-difluorophenyl)isoxazolidine-2-yl)pyrimidine-4-yl)amino)-4-methoxyphenyl) acrylamide]", "Ba/F3 (NPH) Activity": "B (50 nM ≤ GI50 < 500 nM)"}, {"smiles": "C=CC(=O)Nc1cc(Nc2cc(N3OCC[C@@H]3c3ccc(F)cc3F)ncn2)c(OC)cc1-n1cncc1C", "note": "[compound 377, N-(5-((6-((R)-3-(2,4-difluorophenyl)isoxazolidine-2-yl)pyrimidine-4-yl)amino)-4-methoxy-2-(5-methyl-1H-imidazole-1-yl)phenyl)acrylamide]", "Ba/F3 (NPH) Activity": "B (50 nM ≤ GI50 < 500 nM)"}, {"smiles": "C=CC(=O)Nc1cc(Nc2cc(N3OCC[C@@H]3c3cccc(F)c3)ncn2)c(OC)cc1N1CC[C@@H](N(C)C)C1", "note": "[Example 247, N-(2-((R)-3-(dimethylamino)pyrolidine-1-yl)-5-((6-((R)-3-(3-fluorophenyl)isoxazolidine-2-yl)pyrimidine-4-yl)amino)-4-methoxyphenyl) acrylamide]", "Ba/F3 (NPH) Activity": "A (GI50 < 50 nM)"}, {"smiles": "C=CC(=O)Nc1cc(Nc2cc(N3OCC[C@@H]3c3cccc(Cl)c3F)ncn2)c(OC)cc1N1CCC(N2CC[C@@H](N(C)C)C2)CC1", "note": "[compound 914, N-(5-((6-((R)-3-(3-chloro-2-fluorophenyl)isoxazolidine-2-yl)pyrimidine-4-yl)amino)-2-(4-((R)-3-(dimethylamino)pyrolidine-1-yl)piperidine-1-yl)-4-methoxyphenyl) acrylamide]", "Ba/F3 (NPH) Activity": "A (GI50 < 50 nM)"}, {"smiles": "C=CC(=O)Nc1cc(Nc2cc(N3OCC[C@@H]3Cc3cccc(Cl)c3F)ncn2)c(OC)cc1N1CCC(N2CCN(C3CC3)CC2)CC1", "note": "[compound 1020, N-(5-((6-((S)-3-(3-chloro-2-fluorobenzyl)isoxazolidine-2-yl)pyrimidine-4-yl)amino)-2-(4-(4-cyclopropylpiperazine-1-yl)piperidine-1-yl)-4-methoxyphenyl) acrylamide]", "Ba/F3 (NPH) Activity": "A (GI50 < 50 nM)"}, {"smiles": "C=CC(=O)Nc1cc(Nc2cc(N3OCC[C@@H]3Cc3cccc(Cl)c3C)ncn2)c(OC)cc1N1CCC(N2C[C@@H]3C[C@H]2CO3)CC1", "note": "[compound 1029, N-(2-(4-((1S,4S)-2-oxa-5-azabicyclo [2.2.1]heptane-5-yl)piperidine-1-yl)-5-((6-((S)-3-(3-chloro-2-methylbenzyl)isoxazolidine-2-yl)pyrimidine-4-yl)amino)-4-methoxyphenyl) acrylamide]", "Ba/F3 (NPH) Activity": "A (GI50 < 50 nM)"}, {"smiles": "C=CC(=O)Nc1cc(Nc2cc(N3OCC[C@@H]3c3ccc(Cl)c(F)c3)ncn2)c(OC)cc1N1CCN(C2COC2)CC1", "note": "[compound 801, N-(5-((6-((R)-3-(4-chloro-3-fluorophenyl)isoxazolidine-2-yl)pyrimidine-4-yl)amino)-4-methoxy-2-(4-(oxetane-3-yl)piperazine-1-yl)phenyl)acrylamide]", "Ba/F3 (NPH) Activity": "A (GI50 < 50 nM)"}, {"smiles": "C=CC(=O)Nc1cc(Nc2cc(N3OCC[C@@H]3c3c(F)ccc(F)c3Cl)ncn2)c(OC)cc1N1CCN(C2CC2)CC1", "note": "[compound 691, N-(5-((6-((R)-3-(2-chloro-3,6-difluorophenyl)isoxazolidine-2-yl)pyrimidine-4-yl)amino)-2-(4-cyclopropylpiperazine-1-yl)-4-methoxyphenyl) acrylamide]", "Ba/F3 (NPH) Activity": "B (50 nM ≤ GI50 < 500 nM)"}, {"smiles": "C=CC(=O)Nc1cc(Nc2cc(N3OCC[C@@H]3c3ccc(C)nc3)ncn2)c(OC)cc1N1CCC(N2C[C@@H]3C[C@H]2CO3)CC1", "note": "[Example 228, N-(2-(4-((1S,4S)-2-oxa-5-azabicyclo[2.2.1]heptane-5-yl)piperidine-1-yl)-4-methoxy-5-((6-((R)-3-(6-methylpyridine-3-yl)isoxazolidine-2-yl)pyrimidine-4-yl)amino)phenyl)acrylamide]", "Ba/F3 (NPH) Activity": "A (GI50 < 50 nM)"}, {"smiles": "C=CC(=O)Nc1cc(Nc2cc(N3OCC[C@@H]3c3ccccc3)ncn2)c(OC)cc1N1CCC(N(C)CCOC)CC1", "note": "[compound 736, N-(4-methoxy-2-(4-((2-methoxyethyl) (methyl)amino)piperidine-1-yl)-5-((6-((R)-3-phenylisoxazolidine-2-yl)pyrimidine-4-yl)amino)phenyl) acrylamide]", "Ba/F3 (NPH) Activity": "A (GI50 < 50 nM)"}, {"smiles": "C=CC(=O)Nc1cc(Nc2cc(N3OCC[C@@H]3c3cc(F)cc(Cl)c3)ncn2)c(OC)cc1N1CCC(N2CCN(C3CC3)[C@@H](C)C2)CC1", "note": "[Example 157, N-(5-((6-((R)-3-(3-chloro-5-fluorophenyl)isoxazolidine-2-yl)pyrimidine-4-yl)amino)-2-(4-((S)-4-cyclopropyl-3-methylpiperazine-1-yl)piperidine-1-yl)-4-methoxyphenyl) acrylamide]", "Ba/F3 (NPH) Activity": "A (GI50 < 50 nM)"}, {"smiles": "COc1cc(N2CCOCC2)c(NC(=O)/C=C/CN(C)C)cc1Nc1cc(N2OCC[C@@H]2c2cc(F)cc(F)c2)ncn1", "note": "[compound 397, N-(5-((6-((R)-3-(3,5-difluorophenyl)isoxazolidine-2-yl)pyrimidine-4-yl)amino)-4-methoxy-2-morpholinophenyl)-(E)-4-(dimethylamino)but-2-enamide]", "Ba/F3 (NPH) Activity": "A (GI50 < 50 nM)"}, {"smiles": "C=CC(=O)Nc1cc(Nc2cc(N3OCC[C@@H]3c3ccc(Cl)c(Cl)c3)ncn2)c(OC)cc1N1CCC(N2C[C@@H]3C[C@H]2CO3)CC1", "note": "[compound 688, N-(2-(4-((1S,4S)-2-oxa-5-azabicyclo[2.2.1]heptane-5-yl)piperidine-1-yl)-5-((6-((R)-3-(3,4-dichlorophenyl)isoxazolidine-2-yl)pyrimidine-4-yl)amino)-4-methoxyphenyl) acrylamide]", "Ba/F3 (NPH) Activity": "A (GI50 < 50 nM)"}, {"smiles": "C=CC(=O)Nc1cc(Nc2cc(N3OCC[C@@H]3c3cccc(OC)c3)ncn2)c(OC)cc1N1CCC(N2CCN(C3CC3)CC2)CC1", "note": "[Example 65, N-(2-(4-(4-cyclopropylpiperazine-1-yl)piperidine-1-yl)-4-methoxy-5-((6-((R)-3-(3-methoxyphenyl)isoxazolidine-2-yl)pyrimidine-4-yl)amino)phenyl) acrylamide]", "Ba/F3 (NPH) Activity": "A (GI50 < 50 nM)"}, {"smiles": "C=CC(=O)Nc1cc(Nc2cc(N3OCC[C@@H]3Cc3cccc(Cl)c3F)ncn2)c(OC)cc1N1CCC(N2C[C@H]3C[C@@H]2CO3)CC1", "note": "[compound 1021, N-(2-(4-((1R,4R)-2-oxa-5-azabicyclo [2.2.1]heptane-5-yl)piperidine-1-yl)-5-((6-((S)-3-(3-chloro-2-fluorobenzyl)isoxazolidine-2-yl)pyrimidine-4-yl)amino)-4-methoxyphenyl) acrylamide]", "Ba/F3 (NPH) Activity": "A (GI50 < 50 nM)"}, {"smiles": "C=CC(=O)Nc1cc(Nc2cc(N3OCC[C@@H]3Cc3cccc(F)c3Cl)ncn2)c(OC)cc1N1CCC(N2CCN(C3CC3)CC2)CC1", "note": "[compound 1007, N-(5-((6-((S)-3-(2-chloro-3-fluorobenzyl)isoxazolidine-2-yl)pyrimidine-4-yl)amino)-2-(4-(4-cyclopropylpiperazine-1-yl)piperidine-1-yl)-4-methoxyphenyl) acrylamide]", "Ba/F3 (NPH) Activity": "A (GI50 < 50 nM)"}, {"smiles": "C=CC(=O)Nc1cc(Nc2cc(N3OCC[C@@H]3c3ccc(C)nc3)ncn2)c(OC)cc1N1CCN(C2CCCC2)CC1", "note": "[Example 225, N-(2-(4-cyclopentylpiperazine-1-yl)-4-methoxy-5-((6-((R)-3-(6-methylpyridine-3-yl)isoxazolidine-2-yl)pyrimidine-4-yl)amino)phenyl)acrylamide]", "Ba/F3 (NPH) Activity": "B (50 nM ≤ GI50 < 500 nM)"}, {"smiles": "C=CC(=O)Nc1cc(Nc2cc(N3OCC[C@@H]3c3cc(F)ccc3F)ncn2)c(OC)cc1N1CCC(N2CCC(F)(F)CC2)CC1", "note": "[compound 817, N-(2-(4,4-difluoro-[1,4'-bipiperidine]-1'-yl)-5-((6-((R)-3-(2,5-difluorophenyl)isoxazolidine-2-yl)pyrimidine-4-yl)amino)-4-methoxyphenyl) acrylamide]", "Ba/F3 (NPH) Activity": "A (GI50 < 50 nM)"}, {"smiles": "C=CC(=O)Nc1cc(Nc2cc(N3OCC[C@@H]3Cc3cccnc3)ncn2)c(OC)cc1N1CCC(N2CCN(C3CC3)CC2)CC1", "note": "[compound 985, N-(2-(4-(4-cyclopropylpiperazine-1-yl)piperidine-1-yl)-4-methoxy-5-((6-((S)-3-(pyridine-3-ylmethyl)isoxazolidine-2-yl)pyrimidine-4-yl)amino)phenyl) acrylamide]", "Ba/F3 (NPH) Activity": "C (500 nM ≤ GI50 < 5000 nM)"}, {"smiles": "C=CC(=O)Nc1cc(Nc2cc(N3OCC[C@@H]3c3cc(F)cc(F)c3)ncn2)c(OC)cc1N1C[C@@H]2C[C@H]1CO2", "note": "[compound 437, N-(2-((1S,4S)-2-oxa-5-azabicyclo [2.2.1]heptane-5-yl)-5-((6-((R)-3-(3,5-difluorophenyl)isoxazolidine-2-yl)pyrimidine-4-yl)amino)-4-methoxyphenyl) acrylamide]", "Ba/F3 (NPH) Activity": "B (50 nM ≤ GI50 < 500 nM)"}]}]}
